From patent US7728128B2, “Dibenzo[c,h][1,5]naphthyridines and their use as DNA probes” (Institut National de la Sante et de la Recherche Medicate …, priority 2006, dated 2010)
“And” between values parts separate entries of the source, which are not always exact repeats. Equal values may be shown once.

Assays:
plasmid DNA = assay: absorption of free molecules before and after addition of plasmid DNA; format: physicochemical; set-up: Absorption maxima free dye / Absorption maxima DNA bound dye: unit not given here
Description: Plasmid dsDNA was purified using a Qiagen Maxiprep kit and used in the supercoiled form for absorption and fluorescence studies. E. coli total RNA was bought from Ambion, dA/dT and dG/dC homopolymers were purchased from Amersham Biosciences. Calf thymus (CT) high-molecular weight DNA and Hoechst 33258 were obtained from Sigma-Aldrich. Ethidium bromide was purchased from Amresco.
Spectrometry and fluorimetry were performed using a SpectraMax384 (Molecular Devices) and a Luminescence Spectrometer LS50B (Perkin Elmer). Fluorescence emission of compound I in complex with DNA and RNA was measured in 50 mM Na phosphate buffer, pH 7.2 at room temperature. Before use, total E. coli RNA was heated to 100° C. for 1 min and immediately transferred on ice for 5 min before mixing with compound I solution. All measurements were carried out at room temperature (20-23° C.) in solutions protected from light and incubated for ˜10-15 min after dilution. The units of b/dye and bp/dye are defined as moles of RNA bases or DNA base pairs per mole of dye. Quantum yield was measured using quinine sulphate as standard as described in (Iupac Commission on Photochemistry, EPA Newsletter of November 1986, 21-29) using FLUOROMAX-3 Spex Spectrofluorometer (HORIBA) and UVIKON XL Spectrophotometer (SECOMAM).
Although compound I also stains mitotic chromosomes (FIG. 1D), theoretically it was possible that it binds specifically to DNA-associated proteins (for example histones) rather than to nucleic acids. To resolve this issue, the absorption and emission spectra of free compound I before and after addition of dsDNA were recorded. […] Molar extinction coefficient (EC) of free compound I at 391 nm was measured at 10,800 cm^−1 M^−1. In the presence of ds plasmid DNA the absorption peaks of compound I at 373 and 391 nm decreased, and a new peak appears with a maximum at 435 nm (FIG. 1E). An overlay of the absorption spectra in complex with dsDNA at different bp per dye ratios gives a single isosbestic point at 398 nm. Free compound I fluoresces around 438 nm (the exact position of the peak depends on the excitation wavelength). […] At the same time, a new peak evolves with a maximum around 484 nm (FIG. 1F). The exact maximum of fluorescence of compound I/DNA complexes varies insignificantly as a function of the dye/bp ratio and/or base pairs composition of the nucleic acids. […] The quantum yield for compound I (excited at 435 nm) at 5 μM in 50 mM Na-phosphate, pH 7.2, was determined to be 2.7% for free dye and 13.8% in admixture with 50 μM CT DNA.
To get a further insight into how the structural properties of compound I contribute to its binding to DNA, the inventors analysed fourteen structural analogues present in the compound library. Although several of these compounds are fluorescent in vivo, this property went undetected in the initial screen most likely due to the latency period before the appearance of the signal (see below). To evaluate the activity of compound I-like molecules three tests were used: (1) in vivo, the inventors incubated human fibroblasts in the presence of the molecules and scored nuclear fluorescence in the microscope; (2 and 3) in vitro, the inventors looked at the absorption and fluorescence of free molecules before and after addition of plasmid DNA. […] With the exception of compound I and analogues 8 and 12, accurate in vitro measurement of the fluorescence intensities was impossible because the emission peaks for the free molecules were too close to that for the DNA-bound dye. This affected the height of the dye/DNA peaks.

CT DNA = assay: viscometry (hydrodynamic studies) of CT DNA solutions; format: binding, calf
Description: Calf thymus (CT) DNA was dissolved in 50 mM Na-phosphate buffer, pH 7.2, to a concentration of 0.1 or 0.5 mM relative to base pairs as described in the legend for FIGS. 3A and B. DNA solution was allowed to run through a custom-made capillary viscometer and the time necessary for the meniscus to pass a certain distance was measured using a stopwatch. All experiments were performed at 23° C. Viscosity values were calculated using the equation: η=(t−t0)/t0, where t is the flow time of DNA solution (with or without dye), and t0 is the flow time of Na-phosphate buffer alone. For each control and DNA solutions with dyes flow times were measured three to five times. Viscosity of DNA solutions with dyes were calculated as (η/η0)^1/3, where η0 and η are relative viscosities of the CT DNA solution in the absence and presence of the dye, respectively. This calculation stems from the relationship which exists between the relative solution viscosity and the relative contour length (L/L0): L/L0=(η/η0)^1/3, where L stands for the apparent molecular length (Muller, W. et al., 1968, J Mol Biol, 35, 251-290). Average viscosity values and standard error of the mean (SEM) were determined using (η/η0)^1/3 values calculated for each time flow measurement.
DNA-binding dyes interact with dsDNA by intercalation or external binding, or both. External binding most often involves the minor groove of DNA (Kopka et al.; Pjura, P. E., et al., 1987, J Mol Biol, 197, 257-271). Intercalation occurs when a ligand inserts itself between the opposite strands of DNA. In order to determine the mechanism of compound I binding to dsDNA, the inventors performed hydrodynamic studies. This approach is based on the observation that intercalating molecules increase the length of DNA fragments and, consequently, enhance the viscosity of DNA solutions (Muller W. et al.; Suh, D. et al., 1995, Bioorg Med Chem, 3, 723-728). For this experiment, compound I has been compared to the known DNA intercalator ethidium bromide and to the external minor groove binder Hoechst 33258. CT DNA at 0.5 mM was mixed with drugs at 0.1 mM concentration (0.2 dye/bp ratio) and used for viscometry measurements.
The inventors then wondered whether the increase in viscosity is equally matched by the increase in fluorescence intensity. To answer this question, CT DNA at 0.1 mM (bp) was mixed with increasing amounts of compound I and viscosity measurements were performed as above. The viscosity of the DNA/compound I solutions increased up to a dye/bp ratio 1 (FIG. 3B). To correlate the increase in viscosity with fluorescence, the inventors measured fluorescence intensities at 484 nm of the compound I/DNA solutions used for the viscosity measurements.

Absorption maxima DNA bound dye (plasmid DNA; after addition of plasmid DNA): 435
isosbestic point of absorption spectra (plasmid DNA; complex with dsDNA at different bp per dye ratios): 398 nm
Molar extinction coefficient (EC) (plasmid DNA; free dye at 391 nm): 10,800 cm^−1 M^−1
Absorption maxima free dye (plasmid DNA; free molecule, before addition of plasmid DNA): 394
absorption maximum of new peak (plasmid DNA; in the presence of ds plasmid DNA): 435 nm
SMILES: COc1ccc2c(c1)c(C)nc1c3ccc(OC)cc3c(NCCCN(C)C)nc21 [Compound I, N′-(2,8-dimethoxy-12-methyl-dibenzo[c,h][1,5]naphthyridin-6-yl)-N,N-dimethyl-propane-1,3-diamine]
absorption maxima of free dye (plasmid DNA; free compound): 224 nm and 245 nm and 283 nm and 326 nm and 373 nm and 391 nm
dye/bp ratio up to which viscosity increased (CT DNA; CT DNA 0.1 mM (bp)): ≤ 1
dye/bp ratio of maximal fluorescence intensity (CT DNA; CT DNA 0.1 mM (bp), 484 nm): 0.2
effect on viscosity of DNA solution (CT DNA; CT DNA 0.5 mM, drug 0.1 mM (0.2 dye/bp ratio)): increasing the viscosity of the DNA solution
